Measured values: patent US20110054033A1, “METHODS OF USING ABSCISIC ACID FOR AMELIORATING HYPERTENSION AND VASCULAR INFLAMMATION” (Virginia Tech Intellectual Properties, Inc., priority 2009, published 2011)

Experiments:
pancreatic β-cells = conditions: Bruzzone et al., 2008; cited from earlier work
ApoE-deficient mice = test: Blood pressure by non-invasive tail-cuff system; type: in vivo; conditions: for Systolic blood pressure vs control-fed mice: P<0.05
Method: FIG. 3 is a graph showing that ABA decreases systolic blood pressure in ApoE (−/−) mice. ApoE −/− mice were fed high fat diets created with (solid line) or without (dashed line) 100 mg/kg diet racemic abscisic acid (ABA). Systolic blood pressure was assessed on days 0, 28, 56, and 72 of dietary treatment. Data were analyzed as a completely randomized design.
(§1) Five-week old ApoE −/− mice (n=40) were housed at the animal facilities at Virginia Polytechnic Institute and State University in a room maintained at 75° F., with a 12:12 h light-dark cycle starting from 6:00 AM. All experimental procedures were approved by the Institutional Animal Care and Use Committee of Virginia Polytechnic Institute and State University and met or exceeded requirements of the Public Health Service/National Institutes of Health and the Animal Welfare Act. Mice were fed a high saturated fat (AIN-93G-based) diet containing 19.6% fat and 0.2% total cholesterol and obtaining 40.1% of Kcal from fat (4.4 Kcal/g) with or without 100 mg/kg of a racemic ABA mixture (Guri et al., J. Nutr. Biochem. 19:216-28, 2008). Systolic blood pressure was assessed on days 0, 28, 56, and 72. On day 84, fasted mice (12 h) were sacrificed by carbon dioxide asphyxiation and blood was withdrawn through cardiac puncture. Glucose concentrations of whole blood were assessed with an Accu-Chek® Glucometer (Roche, Indianapolis, Ind.) and plasma insulin was measured through insulin ELISA (Millipore, Billerica, Mass.). Aortas were collected for analysis of immune cell infiltration, histological evaluation of atherosclerotic lesions, and gene expression analyses.
Systolic blood pressure was measured with a computerized non-invasive tail-cuff system (CODA 2 mouse rat blood pressure system; Kent Scientific Corporation, Torrington, Conn.). Conscious animals were kept in a restrainer, with a standard acclimatization time of 10 min and gentle heating of the tail before every recording session. Fifteen recordings, which were preceded by five acclimitization recordings, were performed on each animal during each timepoint.

db/db mice = conditions: Guri et al., cited from earlier work
[1] = system: endothelial nitric oxide synthase (eNOS); test: Aortic gene expression by real-time RT-PCR: eNOS; type: in vivo, mice; conditions: day 84, ratio to β-actin
Method: FIG. 4 are photos and graphs showing aortas collected on day 84 of dietary intervention. Representative photomicrographs (100×) of aortic root specimens from (A) control and (B) ABA-fed mice. (C) Analysis of lumenal areas and (D) tunica media areas were performed with aortic cross-sections using Image Pro Plus software. (E) Aortic thickness was analyzed as a ratio of the intima to the media. Gene expression in the aorta of (F) endothelial nitric oxide synthase (eNOS) and (G) 15-lipoxygenase (15-LOX) were measured as a ratio to the house-keeping gene β-actin. Data were analyzed as a completely randomized design.
Total RNA was isolated from aortas using the RNA isolation Minikit (Qiagen) according to the manufacturer's instructions. Total RNA (1 μg) was used to generate a complementary DNA (cDNA) template using the iScript cDNA Synthesis Kit (Bio-Rad, Hercules, Calif.). […] Each gene amplicon was purified with the MiniElute PCR Purification Kit (Qiagen) and quantitated on an agarose gel by using a DNA mass ladder (Promega). […]
Complementary DNA (cDNA) concentrations for genes of interest were examined by real-time quantitative PCR using an iCycler IQ System and the iQ SYBR green supermix (Bio-Rad). […] Results are presented as a starting quantity of target cDNA (picograms) per microgram of total RNA. […]

[2] = Body weight and fasted plasma metabolic parameters of ApoE-deficient mice fed high-fat diet with or without ABA; type: in vivo
Method: as §1
Plasma cholesterol and triglyceride levels were measured using kits from Raichem (San Diego, Calif.) adapted for microtiter plate assays. Plasma free fatty acids were measured using the NEFA-HR(2) kit from Wako. Fast performance liquid chromatography (FPLC) separation of plasma lipoproteins was performed on a Superose 6 column using buffer containing 0.15M NaCl, 0.01M Na2HPO4 and 1 mM EDTA at a flow rate of 0.5 ml/min. Forty 0.5 ml fractions were collected and cholesterol was measured in fractions 10-40. Fractions 15-20 contain VLDL, fractions 21-27 contain LDL and fractions 28-34 contain HDL.

[3] = ABA 100 mg/kg diet, data not shown
[4] = ApoE-deficient mice, high-fat diet, 84 days
[5] = fasted plasma, day 84, ABA 100 mg/kg diet, least square mean ± standard error
[6] = fasted plasma, day 84, ABA 100 mg/kg diet, least square mean ± standard error, * P<0.05 vs control

CC1=CC(=O)CC(C)(C)C1(O)/C=C/C(C)=C\C(=O)O (racemic) [ABA, abscisic acid]
Intracellular levels of cAMP (pancreatic β-cells): increases intracellular levels of cAMP
Diastolic blood pressure vs control-fed mice (ApoE-deficient mice; [3]): no significant affect
Mean heart rate vs control-fed mice (ApoE-deficient mice; [3]): no significant affect
Systolic blood pressure vs control-fed mice (ApoE-deficient mice; day 56, ABA 100 mg/kg diet): significantly reduced
Systolic blood pressure vs control-fed mice (ApoE-deficient mice; day 72, ABA 100 mg/kg diet): significantly reduced
Glucose tolerance (db/db mice; db/db mice, 2007 and 2008): improved glucose tolerance
Macrophage infiltration into white adipose tissue (db/db mice; obese db/db mice, 2008): significantly reduces macrophage infiltration
Reduction in MCP-1 expression in the adipose tissue stromal-vascular fraction (db/db mice; obese db/db mice, 2008): approximately 15 fold
Aortic expression of eNOS mRNA vs control [1]: significantly elevated
Body Weight ([2]; ApoE-deficient mice, high-fat diet with ABA 100 mg/kg, day 84, least square mean ± standard error): 30.8 ± 0.63 g
Effect on body weights vs control diet [2, 4]: no significant effect
Effect on insulin vs control diet [2, 4]: no significant effect
Effect on plasma glucose vs control diet [2, 4]: no significant effect
Effect on plasma non-esterified fatty acid concentration vs control diet [2, 4]: significantly raise
Effect on plasma triglyceride (TG) concentration vs control diet [2, 4]: significantly raise
Effect on total cholesterol levels vs control diet [2, 4]: no significant effect
Glucose ([2]; fasted (12 h), day 84, ABA 100 mg/kg diet, least square mean ± standard error): 194.6 ± 11.9 mg/dL
Cholesterol [2, 5]: 339.0 ± 25.1 mg/dL
Insulin [2, 5]: 0.432 ± 0.05 ng/mL
NEFAs (non-esterified fatty acids) [2, 6]: 2.05 ± 0.17* mequiv./mL
TGs (triglycerides) [2, 6]: 136.1 ± 12.3* mg/dL
HOMA-IR (homeostasis model assessment-insulin resistance) ([2]; fasted, day 84, ABA 100 mg/kg diet, least square mean ± standard error): 4.93 ± 0.76
